Source: ChEMBL document CHEMBL1201862, “PubChem BioAssay data set” (2004)
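Test compounds were applied to cells in 96-well plates for 48 hours at 5 doses. GI50 marks 50% less growth.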 Active and inactive are the calls of the source. No stated cut-off is given here; in the data, active = GI50 up to about 1.1 µM and inactive = higher.

Columns and labels:
Assay in all cases: DTP human tumour cell line panel, 48 h
HCT-15 = system: HCT-15
HOP-62 = system: HOP-62
HOP-92 = system: HOP-92
M19-MEL = system: M19-MEL
MOLT-4 = system: MOLT-4
NCI-H460 = system: NCI-H460
NCI-H522 = system: NCI-H522
SF-539 = system: SF-539
SK-MEL-2 = system: SK-MEL-2
SN12C = system: SN12C
SNB-19 = system: SNB-19
SW-620 = system: SW-620
TK-10 = system: TK-10
U-251 = system: U-251
LOX IMVI = system: LOX IMVI

| SMILES | GI50 (HCT-15) [µM] | GI50 (HOP-62) | GI50 (HOP-92) | GI50 (M19-MEL) | GI50 (MOLT-4) | GI50 (NCI-H460) | GI50 (NCI-H522) | GI50 (SF-539) | GI50 (SK-MEL-2) | GI50 (SN12C) | GI50 (SNB-19) | GI50 (SW-620) | GI50 (TK-10) | GI50 (U-251) | GI50 (LOX IMVI) |
| --- | --- | --- | --- | --- | --- | --- | --- | --- | --- | --- | --- | --- | --- | --- | --- |
| Cc1cccc(C)c1NC(=O)CCC(=O)CC(=O)C(C)C | > 100 | > 100 µM (inactive) | > 100 µM (inactive) | > 100 µM (inactive) | > 100 µM (inactive) | > 100 µM (inactive) | > 100 µM (inactive) | > 100 µM (inactive) | > 100 µM (inactive) | > 100 µM (inactive) | > 100 µM (inactive) | > 100 µM (inactive) | > 100 µM (inactive) | > 100 µM (inactive) | – |
| CC(C)OC(=O)C1Cc2c([nH]c3ccccc23)C(c2ccccc2)N1 (centres undefined) | 75.3 | 23.4 µM (inactive) | 55 µM (inactive) | > 100 µM (inactive) | 42.5 µM (inactive) | > 100 µM (inactive) | 29.2 µM (inactive) | > 100 µM (inactive) | 18.2 µM (inactive) | > 100 µM (inactive) | > 100 µM (inactive) | > 100 µM (inactive) | > 100 µM (inactive) | > 100 µM (inactive) | > 100 µM (inactive) |
| C[N+](C)(C)CC(=O)N/N=C(\CCC(=O)NCCc1ccccc1)CC(=O)c1ccccc1 | > 100 | > 100 µM (inactive) | > 100 µM (inactive) | > 100 µM (inactive) | > 100 µM (inactive) | > 100 µM (inactive) | > 100 µM (inactive) | > 100 µM (inactive) | > 100 µM (inactive) | > 100 µM (inactive) | > 100 µM (inactive) | > 100 µM (inactive) | > 100 µM (inactive) | > 100 µM (inactive) | > 100 µM (inactive) |
| CCOC12OC3=C(CC1CC1=C(CCC1=O)O2)C(=O)CC3 (centres undefined) | > 100 | > 100 µM (inactive) | > 100 µM (inactive) | > 100 µM (inactive) | > 100 µM (inactive) | > 100 µM (inactive) | > 100 µM (inactive) | > 100 µM (inactive) | > 100 µM (inactive) | > 100 µM (inactive) | > 100 µM (inactive) | > 100 µM (inactive) | > 100 µM (inactive) | > 100 µM (inactive) | > 100 µM (inactive) |
| COc1ccc([C@@H]2OC(=O)C3C2C(=O)O[C@H]3c2ccc(OC)cc2)cc1 (some centres undefined) | > 100 | > 100 µM (inactive) | 0.209 µM (active) | > 100 µM (inactive) | > 100 µM (inactive) | > 100 µM (inactive) | – | > 100 µM (inactive) | > 100 µM (inactive) | > 100 µM (inactive) | > 100 µM (inactive) | > 100 µM (inactive) | – | > 100 µM (inactive) | – |
| CC1OC(n2cc(C(F)(F)F)c(=O)[nH]c2=O)C=CC1=O (centres undefined) | 20.7 | 27.7 µM (inactive) | 23.9 µM (inactive) | 20.3 µM (inactive) | 22.6 µM (inactive) | 23.5 µM (inactive) | 16 µM (inactive) | 18.9 µM (inactive) | 18.2 µM (inactive) | 23.3 µM (inactive) | 16.4 µM (inactive) | 17.6 µM (inactive) | 20.9 µM (inactive) | > 10 µM (inactive) | 17.6 µM (inactive) |
| CCOC(=O)/C(C#N)=C1/C(O)=C(C(=O)OC)C(C(=O)OC)=C1C(=O)OC.c1ccncc1 | > 100 | – | > 100 µM (inactive) | > 100 µM (inactive) | > 100 µM (inactive) | > 100 µM (inactive) | > 100 µM (inactive) | > 100 µM (inactive) | > 100 µM (inactive) | > 100 µM (inactive) | > 100 µM (inactive) | > 100 µM (inactive) | > 100 µM (inactive) | > 100 µM (inactive) | > 100 µM (inactive) |
| CC1=CC(=O)NP(=O)(Oc2ccc(C)cc2)N1 (centres undefined) | > 100 | > 100 µM (inactive) | > 100 µM (inactive) | > 100 µM (inactive) | > 100 µM (inactive) | > 100 µM (inactive) | > 100 µM (inactive) | > 100 µM (inactive) | > 100 µM (inactive) | > 100 µM (inactive) | > 100 µM (inactive) | > 100 µM (inactive) | > 100 µM (inactive) | > 100 µM (inactive) | > 100 µM (inactive) |
| O=C1C2=C(CCCCC2)C2CCCCC12O (centres undefined) | – | > 100 µM (inactive) | > 100 µM (inactive) | > 100 µM (inactive) | > 100 µM (inactive) | > 100 µM (inactive) | > 100 µM (inactive) | > 100 µM (inactive) | > 100 µM (inactive) | > 100 µM (inactive) | > 100 µM (inactive) | > 100 µM (inactive) | > 100 µM (inactive) | > 100 µM (inactive) | > 100 µM (inactive) |
